# Data reported in publication PMC11582173, “Synthesis, cytotoxicity, anti-inflammatory, anti-metastatic and anti-oxidant activities of novel chalcones incorporating 2-phenoxy-N-arylacetamide and thiophene moieties: induction of apoptosis in MCF7 and HEP2 cells” (Naunyn-Schmiedeberg's Archives of Pharmacology, 2024).
# Values joined by “and” are separate entries in the source; they are usually repeats but may differ in a detail not shown here. Equal values may be shown once.
# Experiments:
# Type in all cases: cell-based, human
# [1] = test system: Bcl2; assay: ELISA, Bcl2 concentration
# Experimental: (§1) The concentrations of matrix metalloproteinase-2 (MMP2), matrix metalloproteinase-9 (MMP9), Bcl2, BAX, P53, Malondialdehyde (MDA), Glutathione (GSH), caspase 8, caspase 9 and IL-6 were measured quantitatively in 5c treated MCF7 and HEP2 cells using ELISA (Enzyme-Linked Immunosorbent Assay) (Table 4). Gelatinases are a collective word for MMP-2 and MMP-9, where MMP-2 is gelatinase-A and MMP-9 is gelatinase-B. Solid tumor invasion, metastasis, and angiogenesis have long been linked to gelatinases (Das et al. [2021]). […] Bcl2 is a crucial protein that targets apoptosis inhibition. It is regarded as a predictive biomarker or therapeutic target in the diagnosis of cancer due to its broad expression in a variety of cancers (Porter et al. [2009]). […] The pro-apoptotic protein BAX permeabilizes the mitochondrial outer membrane by changing from a cytosolic monomer to a hazardous oligomer triggering the apoptosis process (Fulda and Debatin [2006]). […] P53 transcription factor performs an essential tumor suppressor role by coordinating a wide range of physiological responses, including DNA repair, cell cycle arrest, cellular senescence, cell death, cell differentiation, and metabolism (Liebl and Hofmann [2021]). It was activated in MCF7 and HEP2-treated cells with values (4.28 and 3.109 ng/mL), respectively, compared to their controls (3.44 and 2.06 ng/mL). […]
# [2] = test system: BAX; assay: ELISA, BAX concentration
# Experimental: as §1
# [3] = test system: P53; assay: ELISA, P53 concentration
# Experimental: as §1
# [4] = test system: IL-6; assay: ELISA, IL-6 concentration
# Experimental: as §1
# [5] = test system: MCF7 cells; assay: Wound healing scratch assay, MCF7; conditions: MCF7, 5c at its IC50, 48 h; untreated C0 518.531±12.437, C48 h 160.647±61.276
# Experimental: To examine the effect of chalcone 5c on the migration properties of the MCF7 and HEP2 cells, the wound-healing scratch assay was used. […] Chalcone 5c at its IC50 reduced the ability to close the scrape wound and decreased the number of migrating MCF7 and HEP2 cells compared to the untreated cells (Fig. 4 and Table 6). The scratch gap percentage in 5c treated MCF7 was 344.684±41.224 relative to the control cells (160.647±61.276) after 48 h of treatment. The scratch gap in HEP2 treated with 5c was 567.281±112.789 compared to the untreated control HEP2 cells (211.604±79.883) after 48 h.
# MCF7 and HEP2 treated and untreated cells were detached from the tissue culture plate using 0.25% Trypsin-EDTA solution. Cells pellet was prepared in a 15 mL conical tube by centrifugation. The supernatant was aspirated, and the cells were re-suspended in culture media. The appropriate number of cells was platted in a 6-well plate for 100% confluence in 24 hours. In a sterile environment (typically a biosafety hood), a 200 μL pipette tip was used to press firmly against the […] of the tissue culture plate and swiftly made a vertical wound down through the cell monolayer. Carefully, the media and cell debris were aspirated. Slowly, enough culture media was added against the good wall to cover the bottom of the well and avoid detaching additional cells. […]
structure (smiles),measurement,setting,value
"COc1ccc(NC(=O)COc2ccc(C=CC(=O)c3cccs3)cc2)cc1 [Compound 5c, N-(4-Methoxyphenyl)-2-(4-(3-oxo-3-(thiophen-2-yl)prop-1-en-1-yl)phenoxy)acetamide]",Bcl2 concentration,"[1]; 5c treated HEP2 cells, untreated 2299.4±170.35",1809.34 pg/mL and 1809.34 ± 27.45 pg/mL
same,Bcl2 concentration,"[1]; 5c treated MCF7 cells, untreated 2479.8±17.08",2089.96 pg/mL and 2089.96 ± 17.97 pg/mL
same,BAX concentration,"[2]; 5c treated HEP2 cells, untreated 1261.8±7.38",1342.8 pg/mL and 1342.8 ± 12.7 pg/mL
same,BAX concentration,"[2]; 5c treated MCF7 cells, untreated 946.30±12.7",1099.36 pg/mL and 1099.36 ± 12.8 pg/mL
same,P53 concentration,"[3]; 5c treated HEP2 cells, untreated 2.06±0.425",3.109 ng/mL and 3.109 ± 0.089 ng/mL
same,P53 concentration,"[3]; 5c treated MCF7 cells, untreated 3.44±0.25",4.28 ng/mL and 4.28 ± 0.188 ng/mL
same,IL-6 concentration,"[4]; 5c treated HEP2 cells, untreated 85.24±1.16",54.27 pg/mL and 54.27 ± 5.509 pg/mL
same,IL-6 concentration,"[4]; 5c treated MCF7 cells, untreated 100.47±0.439",74.68 pg/mL and 74.68 ± 0.979 pg/mL
same,% Scratch gap,[5],344.684±41.224%
